Measured values taken from patent US20250206763A1, “ENPP1 INHIBITOR” (SHANGHAI QILU PHARMACEUTICAL RESEARCH AND DEVELOPMENT …, priority 2022, published 2025).

molecular target: T1, human ENPP1 (Homo sapiens, UniProt P22413); assay: In vitro enzyme activity assay: human ENPP1 enzymatic assay (cGAMP), AMP-Glo; type: biochemical; conditions: substrate cGAMP, AMP-Glo detection
T1 construct: purchased Biovendor AP-18-081; host or cells: HEK293
T1 sequence (P22413 1-925): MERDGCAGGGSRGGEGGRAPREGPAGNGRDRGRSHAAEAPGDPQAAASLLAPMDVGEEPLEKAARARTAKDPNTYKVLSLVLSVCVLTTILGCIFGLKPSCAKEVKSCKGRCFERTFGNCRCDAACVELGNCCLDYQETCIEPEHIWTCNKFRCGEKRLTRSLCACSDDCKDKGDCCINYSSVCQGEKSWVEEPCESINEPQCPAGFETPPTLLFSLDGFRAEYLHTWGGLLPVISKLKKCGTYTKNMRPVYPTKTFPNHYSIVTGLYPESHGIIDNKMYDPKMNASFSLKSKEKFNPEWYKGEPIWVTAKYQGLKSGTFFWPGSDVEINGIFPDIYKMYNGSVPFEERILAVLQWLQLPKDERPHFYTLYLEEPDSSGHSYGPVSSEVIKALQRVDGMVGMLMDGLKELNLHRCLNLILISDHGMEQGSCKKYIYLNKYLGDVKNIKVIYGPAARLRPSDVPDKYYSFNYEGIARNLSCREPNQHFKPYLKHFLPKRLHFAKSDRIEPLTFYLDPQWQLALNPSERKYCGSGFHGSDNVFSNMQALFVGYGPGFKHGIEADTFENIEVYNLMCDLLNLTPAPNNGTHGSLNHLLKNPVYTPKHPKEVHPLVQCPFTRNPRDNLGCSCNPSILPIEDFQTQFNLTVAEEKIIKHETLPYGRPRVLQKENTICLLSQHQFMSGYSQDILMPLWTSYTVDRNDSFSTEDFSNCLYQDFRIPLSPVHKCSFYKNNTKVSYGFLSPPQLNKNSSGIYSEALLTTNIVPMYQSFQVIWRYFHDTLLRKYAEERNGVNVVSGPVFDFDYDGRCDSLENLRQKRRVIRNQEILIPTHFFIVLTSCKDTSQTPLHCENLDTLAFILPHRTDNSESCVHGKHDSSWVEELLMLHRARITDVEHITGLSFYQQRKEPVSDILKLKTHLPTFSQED
Description: AMP-Glo Assay Kit (PROMEGA, V5012), ENPP-1-IN-1 (MCE, HY-129490), white opaque 384-well plate (Perkin Elmer, 6008289), Mammalian (non-canonical) CDN, cyclic[g(2′,5′)pA(3′,5′)p](referred to as cGAMP hereinafter, Invivogen, tlrl-nacga23-5), ENPP1 Protein Human HEK293 (Biovendor, AP-18-081).
• 1) Preparing 1× reaction buffer (Tris buffer), 1× enzyme buffer, and 1× substrate buffer; • 2) diluting the compounds using Echo550 and supplementing with DMSO; • 3) pre-loading 2.5 μL of enzyme solution on a reaction plate (adding 2.5 μL of buffer instead as negative control) and incubating it at room temperature; • 4) adding 2.5 μL of substrate solution to the system and incubating it at room temperature; • 5) adding 5 μL of AMP-Glo solution that has been allowed to cooled down to room temperature, centrifuging and reacting at room temperature, • 6) adding 10 μL of AMP Detection solution at room temperature, centrifuging and reacting at room temperature; and • 7) reading the plate using EnVision.

Row | SMILES | IC50 [nM]
1 | C[S@@](=N)(=O)c1ccc(Cn2c(=O)[nH]c3cnc4c5c(ccc4c32)OCO5)cc1 (single isomer, unassigned) [Compound 43-P1] | 10 to 50
2 | C[S@](=N)(=O)c1ccc(Cn2c(=O)[nH]c3cnc4c5c(ccc4c32)OCO5)cc1 (single isomer, unassigned) [Compound 43-P2] | < 10
3 | O=c1[nH]c2cnc3c4c(ccc3c2n1Cc1c(F)cc(P(=O)(O)O)cc1F)OCO4 [Compound 2, (3,5-difluoro-4-((7-oxo-6,7-dihydro-8H-[1,3]dioxolo[4,5-h]imidazo[4,5-c]quinolin-8-yl)methyl)phenyl)phosphonic acid] | < 10
4 | Cn1c(=O)n(Cc2ccc(P(=O)(O)O)c(F)c2)c2c3ccc4c(c3ncc21)OCO4 [Compound 3, (2-fluoro-4-((6-methyl-7-oxo-6,7-dihydro-8H-[1,3]dioxolo[4,5-h]imidazo[4,5-c]quinolin-8-yl)methyl)phenyl)phosphonic acid] | < 10
5 | O=c1[nH]c2cnc3c4c(ccc3c2n1Cc1ccc(P(=O)(O)O)cc1F)OCO4 [Compound 4, (3-fluoro-4-((7-oxo-6,7-dihydro-8H-[1,3]dioxolo[4,5-h]imidazo[4,5-c]quinolin-8-yl)methyl)phenyl)phosphonic acid] | < 10
6 | CC(c1ccc(P(=O)(O)O)c(F)c1)n1c(=O)[nH]c2cnc3c4c(ccc3c21)OCO4 (centres unmarked) [Compound 5-P1] | < 10
7 | CC(c1ccc(P(=O)(O)O)c(F)c1)n1c(=O)[nH]c2cnc3c4c(ccc3c21)OCO4 (centres unmarked) [Compound 5-P2] | < 10
8 | CCn1c(=O)n(Cc2ccc(P(=O)(O)O)c(F)c2)c2c3ccc4c(c3ncc21)OCO4 [Compound 6, (4-((6-ethyl-7-oxo-6,7-dihydro-8H-[1,3]dioxolo[4,5-h]imidazo[4,5-c]quinolin-8-yl)methyl)-2-fluorophenyl)phosphonic acid] | < 10
9 | O=c1n(CC(F)F)c2cnc3c4c(ccc3c2n1Cc1ccc(P(=O)(O)O)c(F)c1)OCO4 [Compound 7] | < 10
10 | O=c1[nH]c2cnc3c4c(ccc3c2n1Cc1ccc(P(=O)(O)O)c2ccccc12)OCO4 [Compound 8] | 10 to 50
11 | O=c1[nH]c2cnc3c4c(ccc3c2n1Cc1ccc(P(=O)(O)O)c(F)c1F)OCO4 [Compound 9] | < 10
12 | CC(C)n1c(=O)n(Cc2ccc(P(=O)(O)O)c(F)c2)c2c3ccc4c(c3ncc21)OCO4 [Compound 10] | < 10
13 | O=c1n(Cc2ccc(P(=O)(O)O)c(F)c2)c2c3ccc4c(c3ncc2n1C1CC1)OCO4 [Compound 11] | < 10
14 | O=c1[nH]c2cnc3c4c(ccc3c2n1Cc1c(F)cc(P(=O)(O)O)c(F)c1F)OCO4 [Compound 12] | < 10
15 | O=c1[nH]c2cnc3c4c(ccc3c2n1Cc1cc(F)c(P(=O)(O)O)cc1Cl)OCO4 [Compound 13] | < 10
16 | Cc1cc(P(=O)(O)O)c(F)cc1Cn1c(=O)[nH]c2cnc3c4c(ccc3c21)OCO4 [Compound 14] | < 10
17 | O=c1[nH]c2cnc3c4c(ccc3c2n1Cc1ccc(P(=O)(O)O)c(Cl)c1)OCO4 [Compound 15] | < 10
18 | O=c1[nH]c2cnc3c4c(ccc3c2n1Cc1ccc(P(=O)(O)O)c(Br)c1)OCO4 [Compound 16] | < 10
19 | O=c1[nH]c2cnc3c4c(ccc3c2n1Cc1cc(F)c(P(=O)(O)O)cc1F)OCO4 [Compound 17] | < 10
20 | CC(C)Cn1c(=O)n(Cc2ccc(P(=O)(O)O)c(F)c2)c2c3ccc4c(c3ncc21)OCO4 [Compound 18] | < 10
21 | O=c1n(CC2CCC2)c2cnc3c4c(ccc3c2n1Cc1ccc(P(=O)(O)O)c(F)c1)OCO4 [Compound 19] | < 10
22 | O=c1n(CC2CCCC2)c2cnc3c4c(ccc3c2n1Cc1ccc(P(=O)(O)O)c(F)c1)OCO4 [Compound 20] | < 10
23 | O=c1n(CC2CCC(F)(F)CC2)c2cnc3c4c(ccc3c2n1Cc1ccc(P(=O)(O)O)c(F)c1)OCO4 [Compound 21] | < 10
24 | CC(C)(C)Cn1c(=O)n(Cc2ccc(P(=O)(O)O)c(F)c2)c2c3ccc4c(c3ncc21)OCO4 [Compound 22] | < 10
25 | O=c1n(CC(F)(F)F)c2cnc3c4c(ccc3c2n1Cc1ccc(P(=O)(O)O)c(F)c1)OCO4 [Compound 23] | < 10
26 | O=c1n(CCC(F)(F)F)c2cnc3c4c(ccc3c2n1Cc1ccc(P(=O)(O)O)c(F)c1)OCO4 [Compound 24] | < 10
27 | O=c1n(CCC2CCOCC2)c2cnc3c4c(ccc3c2n1Cc1ccc(P(=O)(O)O)c(F)c1)OCO4 [Compound 25] | < 10

Row | SMILES | IC50 [nM]
28 | O=c1n(CCCF)c2cnc3c4c(ccc3c2n1Cc1ccc(P(=O)(O)O)c(F)c1)OCO4 [Compound 26] | < 10
29 | O=c1n(Cc2ccc(P(=O)(O)O)c(F)c2)c2c3ccc4c(c3ncc2n1C1CCCC1)OCO4 [Compound 27] | < 10
30 | O=c1n(Cc2ccc(P(=O)(O)O)c(F)c2)c2c3ccc4c(c3ncc2n1C1CCOCC1)OCO4 [Compound 28] | < 10
31 | O=c1n(CCCOC2CCOCC2)c2cnc3c4c(ccc3c2n1Cc1ccc(P(=O)(O)O)c(F)c1)OCO4 [Compound 29] | < 10
32 | CC(C)CCn1c(=O)n(Cc2ccc(P(=O)(O)O)c(F)c2)c2c3ccc4c(c3ncc21)OCO4 [Compound 30] | < 10
33 | CS(=O)(=O)CCn1c(=O)n(Cc2ccc(P(=O)(O)O)c(F)c2)c2c3ccc4c(c3ncc21)OCO4 [Compound 31] | < 10
34 | O=c1n(CCCN2CCOCC2)c2cnc3c4c(ccc3c2n1Cc1ccc(P(=O)(O)O)c(F)c1)OCO4 [Compound 32] | < 10
35 | CN(C)CCn1c(=O)n(Cc2ccc(P(=O)(O)O)c(F)c2)c2c3ccc4c(c3ncc21)OCO4 [Compound 33] | < 10
36 | CN(C)CCCn1c(=O)n(Cc2ccc(P(=O)(O)O)c(F)c2)c2c3ccc4c(c3ncc21)OCO4 [Compound 34] | < 10
37 | NS(=O)(=O)c1cc(F)c(Cn2c(=O)[nH]c3cnc4c5c(ccc4c32)OCO5)c(F)c1 [Compound 35] | < 10
38 | NS(=O)(=O)c1ccc(Cn2c(=O)[nH]c3cnc4c5c(ccc4c32)OCO5)cc1 [Compound 36] | < 10
39 | NS(=O)(=O)c1ccc(Cn2c(=O)[nH]c3cnc4c5c(ccc4c32)OCO5)cc1F [Compound 37] | < 10
40 | NS(=O)(=O)c1ccc(Cn2c(=O)[nH]c3cnc4c5c(ccc4c32)OCO5)c(F)c1F [Compound 38] | < 10
41 | NS(=O)(=O)c1ccc(Cn2c(=O)[nH]c3cnc4c5c(ccc4c32)OCO5)c(F)c1 [Compound 39] | < 10
42 | NS(=O)(=O)c1ccc(Cn2c(=O)[nH]c3cnc4c5c(ccc4c32)OCO5)nc1 [Compound 40] | < 10
43 | CCn1c(=O)n(Cc2c(F)cc(S(N)(=O)=O)cc2F)c2c3ccc4c(c3ncc21)OCO4 [Compound 41] | < 10
44 | CS(=N)(=O)c1ccc(Cn2c(=O)[nH]c3cnc4c5c(ccc4c32)OCO5)cc1F (centres unmarked) [Compound 42] | < 10
45 | Cn1c(=O)n(Cc2ccc(S(C)(=N)=O)cc2)c2c3ccc4c(c3ncc21)OCO4 (centres unmarked) [Compound 44] | < 10
46 | CCn1c(=O)n(Cc2ccc(S(C)(=N)=O)cc2)c2c3ccc4c(c3ncc21)OCO4 (centres unmarked) [Compound 45] | < 10
47 | O=c1[nH]c2cnc3c4c(ccc3c2n1Cc1c(F)cc(B(O)O)cc1F)OCO4 [Compound 46] | < 10
48 | Cn1c(=O)n(Cc2c(F)cc(B(O)O)cc2F)c2c3ccc4c(c3ncc21)OCO4 [Compound 47] | < 10
49 | O=c1[nH]c2cnc3c4c(ccc3c2n1Cc1ccc(B(O)O)cc1)OCO4 [Compound 48] | < 10
50 | COc1cc(Cn2c(=O)[nH]c3cnc4c5c(ccc4c32)OCO5)ccc1P(=O)(O)O [Compound 49] | < 10
51 | O=c1n(Cc2ccc(P(=O)(O)O)c(F)c2)c2c3ccc4c(c3ncc2n1C(F)F)OCO4 [Compound 51] | < 10
52 | O=c1n(Cc2ccc(P(=O)(O)O)c(F)c2)c2c3ccc4c(c3ncc2n1-c1ccccc1)OCO4 [Compound 52] | < 10
53 | CN(C)CCn1c(=O)n(Cc2c(F)cc(S(N)(=O)=O)cc2F)c2c3ccc4c(c3ncc21)OCO4 [Compound 53] | < 10
